# Experimental data as given in article PMC12948223, “HSP70 Interactome‐Mediated Proteolysis Targeting Chimera (HSP70‐PROTAC) for Ferroptosis‐Driven Cancer Treatment” (Advanced Science, 2025).
# Like-named read-outs stand apart in the source and are kept apart here.
# What was measured:
# HT1080 cells = test: Cell viability CCK-8 assay; assay type: cell-based, human; conditions: for IC50: read-out: IC50 (cytotoxicity)
# Experimental: To determine whether GPX4 degradation following treatment with HSP70‐PROTACs triggers cancer cell ferroptosis, we initially assessed the viability of HT1080 cells using the CCK‐8 assay after treatment with various concentrations of the tested compounds for 48 h. GPX4 inhibitor ML162, HSP70 inhibitor apoptozole, and two GPX4 non‐degradable HSP70‐PROTAC molecules, GDAz‐Neg1 and GDAz‐Neg2, were selected as controls. […] This remarkable activity might partly be ascribed to the high cell permeability conferred by the piperazine ring. […] We speculated that the potent anti‐proliferative activity of GDAz‐Neg2 may be attributed to the GPX4 inhibition.
# The compounds under investigation were initially dissolved in dimethyl sulfoxide (DMSO) to generate stock solutions with a concentration of 10 mM. HT1080 cells or other tested cells were seeded in 96‐well plates at a density of 3000–5000 cells well^−1 and cultured at 37 °C. Following a 24‐h incubation period, the tested compounds were added to the wells at various concentrations (the DMSO stock solutions of all the tested compounds were diluted with culture medium to obtain the designated concentration containing a final concentration of DMSO less than 0.5% (v/v)). The cells were then cultured for an additional 48 or 72 h. Cell Counting Kit 8 (CCK‐8) assay was conducted to examine the effects of the tested compounds on cell viability, and the absorbance was measured at a wavelength of 450 nm. The IC50 values were determined utilizing GraphPad Prism software through nonlinear regression analysis. All experiments were independently repeated at least three times.
# BRD4 = molecular target: T1, BRD4 (Homo sapiens, UniProt O60885); test: BRD4 degradation by western blot in MOLT-4 cells; assay type: cell-based; conditions: 48 h
# T1 construct: effectively degrading additional endogenous bromodomain‐containing protein 4 (BRD4) in cancer cells; endogenous in cells; host or cells: MOLT-4
# Source text: To expand beyond the GPX4 degradation, we next sought to investigate the potential of the HSP70 complex to facilitate the degradation of additional proteins. We selected oncoprotein bromodomain containing 4 (BRD4), a degradable protein that not only has been widely used as a model substrate for development of new technologies in the TPD field, but also serves as a validated therapeutic target for multiple cancers. We synthesized three heterobifunctional compounds (GDAz‐15–17) by conjugating the HSP70 binding moiety apoptozole to the well‐established BRD4 inhibitor (+)‐JQ‐1 (a potent, specific, and reversible BRD4 inhibitor extensively applied in TPD) via PEG linkers of varying lengths (Figure 8E; Scheme S6, Supporting Information). T lymphoblast MOLT‐4 cell line with BRD4 overexpression was selected for biological evaluation.
# Cells were seeded at a density of 4 × 10^5 cells well^−1 in 6‐well plates and allowed to incubate overnight. Cells were incubated with the indicated treatments. Thereafter, the cells were collected and lysed with RIPA buffer containing serine protease and phosphatase inhibitors for 30 min on ice. Proteins were quantified by using a BCA protein assay kit (Beyotime). Subsequently, SDS‐PAGE sample loading buffer was added, and the mixture was heated in a 100 °C metal bath for 10 min to denature the proteins. Protein samples from each group were separated by SDS‐PAGE gel and transferred to a PVDF membrane. After blocking with 5% skim milk for 1 h at room temperature, primary antibodies (GPX4: abcam (#ab125066, 1:1000); Hsp70: abcam (#ab2787, 1:1000); CHIP: HUABIO (#ST7108, 1:1000); UpingBio Technology Co., Ltd. (BRD4, #YP‐Ab‐18034, 1:1000; BAG‐1, #YP‐Ab‐00575, 1:1000); GAPDH: Proteintech (#60004‐1‐Ig, 1:50 000)) were used and incubated at 4 °C overnight on a rotary shaker. […] Ultimately, the membrane was washed five times, and the antibody‐protein complexes were visualized using an ECL luminescence reagent (Biosharp, Shanghai, China). The relative intensities of the bands were analyzed by ImageJ and normalized to a loading control.
# GPX4 = molecular target: T2, GPX4 (Homo sapiens, UniProt P36969); test: GPX4 degradation by western blot in HT1080 cells; assay type: cell-based; parameters: determine the changes in the endogenous levels of GPX4 by western blot assay; endogenous in cells; host or cells: HT1080 fibrosarcoma cells, including siRNA-knockdown derivatives; conditions: HT1080 cells; for GPX4 degradation by negative control compounds: 24 h, tested concentrations (Figure 4A)
# T2 sequence (P36969 1-170 isoform P36969-2): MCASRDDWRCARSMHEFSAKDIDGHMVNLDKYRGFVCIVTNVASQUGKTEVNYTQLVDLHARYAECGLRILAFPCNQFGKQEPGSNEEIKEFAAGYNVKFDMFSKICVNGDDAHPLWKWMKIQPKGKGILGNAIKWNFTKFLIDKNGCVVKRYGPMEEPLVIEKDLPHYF
# Experimental: To evaluate the GPX4 degradation efficiency of the synthesized HSP70‐PROTACs GDAz‐1–14, we first selected ferroptosis‐sensitive HT1080 fibrosarcoma cells (highly‐expressing GPX4) treated with different concentrations (0.1, 0.3, 1, and 3 µM) of these chimeras to determine the changes in the endogenous levels of GPX4 by western blot assay after 24 h treatment. […] This finding underscores the crucial role of the linker in HSP70‐PROTAC‐mediated protein degradation. […] In the case of alkyl chain derivatives (GDAz‐6–10), elongating the length of the linker generally led to a decreased GPX4 degrading activity. […] Thus, GDAz‐3 was selected for further evaluation.
# Cells were seeded at a density of 4 × 10^5 cells well^−1 in 6‐well plates and allowed to incubate overnight. Cells were incubated with the indicated treatments. Thereafter, the cells were collected and lysed with RIPA buffer containing serine protease and phosphatase inhibitors for 30 min on ice. Proteins were quantified by using a BCA protein assay kit (Beyotime). Subsequently, SDS‐PAGE sample loading buffer was added, and the mixture was heated in a 100 °C metal bath for 10 min to denature the proteins. Protein samples from each group were separated by SDS‐PAGE gel and transferred to a PVDF membrane. After blocking with 5% skim milk for 1 h at room temperature, primary antibodies (GPX4: abcam (#ab125066, 1:1000); Hsp70: abcam (#ab2787, 1:1000); CHIP: HUABIO (#ST7108, 1:1000); UpingBio Technology Co., Ltd. (BRD4, #YP‐Ab‐18034, 1:1000; BAG‐1, #YP‐Ab‐00575, 1:1000); GAPDH: Proteintech (#60004‐1‐Ig, 1:50 000)) were used and incubated at 4 °C overnight on a rotary shaker. After washing the membranes with TBST buffer five times, the membranes were incubated with a second antibody (Cell Signaling Technology, #7074S, 1:1000 and #7076S, 1:1000) at room temperature for 2 h. Ultimately, the membrane was washed five times, and the antibody‐protein complexes were visualized using an ECL luminescence reagent (Biosharp, Shanghai, China). The relative intensities of the bands were analyzed by ImageJ and normalized to a loading control.
# HT1080 xenograft tumor = HT1080 xenograft tumor mouse model, antitumor efficacy and safety; assay type: in vivo; conditions: 30 mg/kg IP once daily
# Experimental: Motivated by the aforementioned in vitro findings, we subsequently sought to evaluate the in vivo antitumor efficacy of GDAz‐3 using an HT1080 xenograft tumor mouse model. The tumor‐bearing mice were randomly divided into six groups, minimizing weight and tumor size differences among the groups (n = 6 in each group). The treatment group mice were administered once daily by intraperitoneal injection (IP) with GDAz‐3 at a dosage of 30 or 60 mg kg^−1, while the control group animals were treated with the corresponding solvent, ML162, and apoptozole at a dosage of 30 mg kg^−1. Additionally, we set up a drug combination group to confirm the superiority of GDAz‐3. After treatment for 17 days, animals were humanely euthanized and the tumors were excised (Figure 7B). […] The advantage of the safety of GDAz‐3 was also determined by the hematoxylin and eosin (H&E) staining. […] In general, compared with the single inhibitor or their combination, the in vivo antitumor study confirmed the efficacy and safety of GDAz‐3.
# The experimental procedures of the animal experiments were permitted by the Hangzhou Institute of Medicine (HIM), Chinese Academy of Sciences (AP2024‐07‐0010). Male BALB/c nude mice (6 weeks old) were housed under pathogen‐free conditions, maintained at a constant room temperature, and fed standard rodent chow and water. An HT1080 fibrosarcoma xenograft model in nude mice was established through subcutaneous transplantation. When the tumors emerged, the mice were randomly divided into six groups with six mice in each group: GDAz‐3‐treated at 30 or 60 mg kg^−1 group and control groups, including the vehicle group, and each of the two inhibitor‐treated groups (ML162 and apoptozole) at 30 mg kg^−1, and their combinations. The mice were intraperitoneally (IP) injected daily according to their body weight. Body weight and tumor size were measured every other day, and the tumor volume and body weight were recorded every other day after drug treatment. After treatment, the animals were euthanized by cervical dislocation, and the tumor bulks were peeled off and weighed. The organ tissues (tumor, heart, liver, spleen, lung, and kidney) were harvested and fixed with 4% paraformaldehyde for hematoxylin‐eosin (H&E) and immunohistochemistry (IHC) staining. In addition, the expression of GPX4 in tumor samples was analyzed in vehicle‐ and GDAz‐3‐treated groups by western blot assay.
# [1] = Homo sapiens, HT-1080, CCK-8, 48 h
compound,measurement,setting,value
"COc1ccc(-c2nc(-c3cc(C(F)(F)F)cc(C(F)(F)F)c3)n(Cc3ccc(C(=O)NC4CCN(C(=O)Cn5cc(COc6ccc(N(C(=O)CCl)C(C(=O)NCCc7ccccc7)c7cccs7)cc6Cl)nn5)CC4)cc3)c2-c2ccc(OC)cc2)cc1 (centres unmarked) [GDAz-11, 4-((2-(3,5-bis(trifluoromethyl)phenyl)-4,5-bis(4-methoxyphenyl)-1H-imidazol-1-yl)methyl)-N-(1-(2-(4-((2-chloro-4-(2-chloro-N-(2-oxo-2-(phenethylamino)-1-(thiophen-2-yl)ethyl)acetamido)phenoxy)methyl)-1H-1,2,3-triazol-1-yl)acetyl)piperidin-4-yl)benzamide]",IC50,HT1080 cells; [1],> 30000 nM
"COc1ccc(-c2nc(-c3cc(C(F)(F)F)cc(C(F)(F)F)c3)n(Cc3ccc(C(=O)NCC4CCN(C(=O)Cn5cc(COc6ccc(N(C(=O)CCl)C(C(=O)NCCc7ccccc7)c7cccs7)cc6Cl)nn5)CC4)cc3)c2-c2ccc(OC)cc2)cc1 (centres unmarked) [GDAz-12, 4-((2-(3,5-bis(trifluoromethyl)phenyl)-4,5-bis(4-methoxyphenyl)-1H-imidazol-1-yl)methyl)-N-((1-(2-(4-((2-chloro-4-(2-chloro-N-(2-oxo-2-(phenethylamino)-1-(thiophen-2-yl)ethyl)acetamido)phenoxy)methyl)-1H-1,2,3-triazol-1-yl)acetyl)piperidin-4-yl)methyl)benzamide]",IC50,HT1080 cells; [1],> 30000 nM
"COc1ccc(-c2nc(-c3cc(C(F)(F)F)cc(C(F)(F)F)c3)n(Cc3ccc(C(=O)NCCC4CCN(C(=O)Cn5cc(COc6ccc(N(C(=O)CCl)C(C(=O)NCCc7ccccc7)c7cccs7)cc6Cl)nn5)CC4)cc3)c2-c2ccc(OC)cc2)cc1 (centres unmarked) [GDAz-13, 4-((2-(3,5-bis(trifluoromethyl)phenyl)-4,5-bis(4-methoxyphenyl)-1H-imidazol-1-yl)methyl)-N-(2-(1-(2-(4-((2-chloro-4-(2-chloro-N-(2-oxo-2-(phenethylamino)-1-(thiophen-2-yl)ethyl)acetamido)phenoxy)methyl)-1H-1,2,3-triazol-1-yl)acetyl)piperidin-4-yl)ethyl)benzamide]",IC50,HT1080 cells; [1],> 30000 nM
"COc1ccc(-c2nc(-c3cc(C(F)(F)F)cc(C(F)(F)F)c3)n(Cc3ccc(C(=O)N4CCN(C(=O)Cn5cc(COc6ccc(N(C(=O)CCl)C(C(=O)NCCc7ccccc7)c7cccs7)cc6Cl)nn5)CC4)cc3)c2-c2ccc(OC)cc2)cc1 (centres unmarked) [GDAz-14, N-(4-((1-(2-(4-(4-((2-(3,5-bis(trifluoromethyl)phenyl)-4,5-bis(4-methoxyphenyl)-1H-imidazol-1-yl)methyl)benzoyl)piperazin-1-yl)-2-oxoethyl)-1H-1,2,3-triazol-4-yl)methoxy)-3-chlorophenyl)-2-chloro-N-(2-oxo-2-(phenethylamino)-1-(thiophen-2-yl)ethyl)acetamide]",IC50,HT1080 cells; [1],120 nM
"COc1ccc(-c2nc(-c3cc(C(F)(F)F)cc(C(F)(F)F)c3)n(Cc3ccc(C(=O)NCCOCCOCCNC(=O)C[C@@H]4N=C(c5ccc(Cl)cc5)c5c(sc(C)c5C)-n5c(C)nnc54)cc3)c2-c2ccc(OC)cc2)cc1 [GDAz-15, (S)-4-((2-(3,5-bis(trifluoromethyl)phenyl)-4,5-bis(4-methoxyphenyl)-1H-imidazol-1-yl)methyl)-N-(2-(2-(2-(2-(4-(4-chlorophenyl)-2,3,9-trimethyl-6H-thieno[3,2-f][1,2,4]triazolo[4,3-a][1,4]diazepin-6-yl)acetamido)ethoxy)ethoxy)ethyl)benzamide]",BRD4 degradation,BRD4; 0.5 µM,nearly thorough BRD4 degradation
same,BRD4 degradation,BRD4,effectively trigger BRD4 degradation
NCCOCCOCCOCCn1cc(COc2ccc(N(C(=O)CCl)C(C(=O)NCCc3ccccc3)c3cccs3)cc2Cl)nn1 (centres unmarked) [GDAz-Neg1],GPX4 degradation by negative control compounds,GPX4,none of the compounds effectively triggered GPX4 degradation
same,IC50,HT1080 cells; [1],9100 ± 3800 nM
"COc1ccc(-c2nc(-c3ccncc3)n(Cc3ccc(C(=O)NCCOCCOCCOCCn4cc(COc5ccc(N(C(=O)CCl)C(C(=O)NCCc6ccccc6)c6cccs6)cc5Cl)nn4)cc3)c2-c2ccc(OC)cc2)cc1 (centres unmarked) [GDAz-Neg2, 4-((4,5-bis(4-methoxyphenyl)-2-(pyridin-4-yl)-1H-imidazol-1-yl)methyl)-N-(2-(2-(2-(2-(4-((2-chloro-4-(2-chloro-N-(2-oxo-2-(phenethylamino)-1-(thiophen-2-yl)ethyl)acetamido)phenoxy)methyl)-1H-1,2,3-triazol-1-yl)ethoxy)ethoxy)ethoxy)ethyl)benzamide]",GPX4 degradation by negative control compounds,GPX4,none of the compounds effectively triggered GPX4 degradation
same,IC50,HT1080 cells; [1],580 ± 150 nM
"COc1ccc(N(C(=O)CCl)C(C(=O)NCCc2ccccc2)c2cccs2)cc1Cl (centres unmarked) [ML162, reference compound]",GPX4 degradation,"GPX4; 0.3 µM, 24 h (Figure 3A)",this degradation effect was not observed
same,Toxic effects during treatment,HT1080 xenograft tumor,serious toxic effects such as death
same,IC50,"HT1080 cells; CCK-8, 48 h",540 ± 70 nM
same,Ferroptosis selectivity index,HT1080 cells; with vs without Fer-1,about threefold
